Assay results as given in patent publication US20250074910A1, “MENIN INHIBITOR AND USE THEREOF” (HITGEN INC., priority 2021, published 2025).

Assays:
[1] = target: Menin/MLL-4-43 peptide interaction (Homo sapiens (Human), UniProt O00255); experiment: Menin-MLL interaction inhibitory activity assay (fluorescence polarization competition); format: binding; details: FITC-MLL4-43-peptide, Menin recombinant protein
Method: Test Example 1: Menin-MLL Interaction Inhibitory Activity Assay
The inhibition of Menin/MLL-4-43 peptide interaction by small molecule inhibitors was quantitatively detected by fluorescence polarization competition assay. The experiment was performed in a 384-well plate (Corning, Cat #3575) using a reaction buffer consisting of 50 mM Tris, pH 7.5, 50 mM NaCl, and 1 mM DTT. A 40 μL reaction system included 10 μL of 8 nM Menin recombinant protein and 10 μL of the test compound at different concentrations. The compound was pre-incubated with Menin protein for 15 min, and then 20 μL of 10 nM FITC-MLL4-43-peptide was added. After incubation on a shaker at 25° C. for 60 min, the fluorescence polarization signal (FP 485 520 520) was read using BMG PHERAStar detection. The experimental data was analyzed and processed by GraphPad Prism 6 software to obtain the IC50 value. The control compound 1 was prepared by referring to the method of Example 64 in WO2017214367.

[2] = test system: MV4-11; experiment: Cell proliferation inhibition (CellTiter-Glo), MV4-11; format: cell-based; details: MV4-11 cells
Method: (§1) Test Example 2: Test of the Inhibitory Ability of Menin-MLL Interaction Inhibitors on Cell Proliferation
(§2) The inhibitory ability of the compounds of the present disclosure on the proliferation of tumor cell lines (including cell lines containing MLL fusion protein such as MV4-11, MOLM-13, THP-1 and NOMO-1, control cell lines without MLL fusion protein such as HL-60, K562 and MOLM-16, and cell lines containing NPM1 mutation such as OCI-AML3) was evaluated by using the cell viability analysis method. The cells were plated in 96-well plates at a certain concentration (e.g., 5,000-20,000 cells/well), and then an equal volume of culture medium containing 2 times the final concentration of the test compound (the final concentration ranging 10 from 1 nM to 10 μM) was added. The plates were placed in an incubator and cultured at 37° C. and 5% CO2 for 72-168 h. Before the test, an equal volume of CellTiter-Glo® Luminescent reagent was added, and the plate was incubated at room temperature for 10 min before detection using an ELISA reader (BMG LABTECH). The data were analyzed using GraphPad Prism software to obtain the IC50 value and compound fitting curve. The control compound 1 was prepared by referring to the method of Example 64 in WO2017214367.

[3] = test system: MOLM-13; experiment: Cell proliferation inhibition (CellTiter-Glo), MOLM-13; format: cell-based; details: MOLM-13 cells
Method: as §1, §2

[4] = test system: OCI-AML3; experiment: Cell proliferation inhibition (CellTiter-Glo), OCI-AML3 (NPM1 mutation); format: cell-based; details: OCI-AML3 cells
Method: as §1, §2

[5] = Pharmacokinetics test in mouse; format: in vivo, ICR mice; details: mice, p.o. 10 mg/kg; for AUC(0-t) / half-life / Cmax: male, ICR, mouse, plasma, po, 10 mg/kg; for Cmax: read-out: Cmax; for F, %: 1 mg/kg for intravenous injection
Text: Test Example 4. In Vivo Pharmacokinetic Study
Test purpose: To determine the pharmacokinetic properties of some of the example compounds of the present disclosure in mice, rats and dogs after single intravenous injection (i.v.) and oral gavage (i.g.) administration by LC-MS/MS method.
Research methods: An appropriate amount of compound was weighed and prepared into a transparent clear solution of a certain concentration using 0.9% sodium chloride injection and 1.5 equivalents of 1M HCl aqueous solution based on the molar number of the compound. After SPF male ICR mice, SPF male SD rats, and male beagle dogs were fasted overnight, the test compound solution was given by intravenous injection and oral gavage at the corresponding dose. Anticoagulated whole blood of the test animals was collected at 5 min, 15 min, 30 min, 1 h, 2 h, 4 h, 8 h, and 24 h after administration, and plasma was separated. Plasma samples at each time point were detected by LC-MS/MS, and the plasma concentration of the compound was determined by the standard curve correction method. Phoenix WinNonlin 5.2 non-compartmental model was used to calculate the pharmacokinetic parameters of terminal elimination half-life (t½), blood peak concentration (Cmax), area under the concentration-time curve (AUC), clearance (CL), and bioavailability (F %), which was directly obtained from the serum concentration results. Blood drug concentration and pharmacokinetic parameters are expressed as mean±standard deviation (X±SD). The specific test protocols for each species are as follows.
Pharmacokinetics Test in Mouse
Test animals: SPF male ICR mice, weighing 25-30 g, 12 mice/compound, purchased from Chengdu Dossy Experimental Animal Co., Ltd.
Test design: On the day of the test, ICR mice were randomly divided into groups according to body weight, fasted but with free water for 12-14 h one day before administration, and fed 2 h after administration.
Preparation of test compound solution: The concentration of the test compound for oral gavage was 1 mg/mL. An appropriate amount of compound was weighed and prepared into a 1 mg/mL transparent clear solution using 0.9% sodium chloride injection and 1.5 equivalents of 1M HCl aqueous solution. The concentration of the test compound for intravenous injection was 0.2 mg/mL. The 1 mg/mL transparent clear solution was diluted to a concentration of 0.2 mg/mL using 0.9% sodium chloride injection. The volume of 1 M HCl solution added was calculated as: volume of 1 M HCl solution added […]=weighed amount of compound (mg)/molecular weight×1.5×1000. The amount added during preparation must not exceed the calculated value.
The test substance was administered as follows: intravenous injection: 1 mg/kg of dose, 5 mL/kg of volume, 6 mice; oral gavage: 10 mg/kg of dose, 10 mL/kg of volume, 6 mice.
Sample collection: Blood (40-50 μl) was collected in anticoagulant tubes sprayed with EDTA-K2 through the orbital venous plexus at 5 min, 15 min, 30 min, 1 h, 2 h, 4 h, 8 h, and 24 h after administration, and centrifuged at 10,000 rpm for 20 min within 1 h (the blood was saved on wet ice before and after centrifugation). The supernatant, which was plasma, was collected and frozen in a refrigerator at −20° C. or below for LC-MS/MS analysis of Full PK of male ICR mice (2 mice per group, 4 blood collection time points per mouse, crossover).

[6] = Stability in mouse liver microsomes; format: in vitro ADME; details: 1.00 μM compound, NADPH; for half-life at 1 μM: liver microsomes, pH 7.4, 0.5 mg/mL microsomal protein, read-out: Half life T1/2, mouse liver microsomes
Method: (§3) Test Example 3: Test of Stability of Compounds in Liver Microsome
(§4) Test purpose: To determine the stability of some of the compounds of the present disclosure in mouse, dog and human liver microsomes by LC-MS/MS method.
(§5) Test materials: The test drugs were in-house prepared example compounds of the present disclosure; the positive reference compound SNDX-5613 was prepared by the method of Example 253 in patent WO2017214367; the control compound 1 was prepared by the method of Example 64 in WO2017214367; liver microsomes were purchased from CORNING.
(§6) The total volume of each incubation system was approximately 45 μL, and the medium was 100 mM phosphate buffer (PBS, pH 7.4), including liver microsomal protein at a final concentration of 0.5 mg/mL, 1.00 μM compound and 2.00 mM NADPH, and the organic phase content was <1%. Incubation was performed in a 37° C. incubator, and 135 μL of ice-cold acetonitrile was added after 0, 5, 15, 30 and 60 min of reaction to terminate the reaction. The positive control group was incubated with 1.00 μM Ketanserin, 0.5 mg/mL liver microsomal protein and 2.00 mM NADPH in a 37° C. incubator for 0, 5, 15, 30 and 60 min respectively, and then 135 μL of ice-cold acetonitrile was added to terminate the reaction. The 96-well plates were shaken at 600 rpm for 10 min and then centrifuged at 4700 rpm at 4° C. for 15 min. 80 μL of supernatant was mixed with 320 μL of pure water, and the remaining amount of the compound was detected by LC-MS/MS method. The in vitro half life (T½) and intrinsic clearance (CLint) were calculated according to the following formula:
(§7) Intrinsic clearance (Clint)=(0.693/T1/2)×(1/liver microsome concentration)×conversion factor. k is the linear regression slope of the remaining percentage of the ln compound-incubation time.

[7] = Stability in human liver microsomes; format: in vitro ADME; details: 0.5 mg/mL microsomal protein, 1.00 μM compound, NADPH; for half-life at 1 μM: human, liver microsomes, pH 7.4, Human, read-out: Half life T1/2, human liver microsomes
Method: as §3, §4, §5, §6, §7

[8] = Stability in dog liver microsomes; format: in vitro ADME; details: dog, liver microsomes, pH 7.4, Dog; 0.5 mg/mL microsomal protein, 1.00 μM compound, NADPH; read-out: Half life T1/2, dog liver microsomes
Method: as §3, §4, §5, §6, §7

Chain of Menin/MLL-4-43 peptide interaction (O00255 whole entry, species assumed): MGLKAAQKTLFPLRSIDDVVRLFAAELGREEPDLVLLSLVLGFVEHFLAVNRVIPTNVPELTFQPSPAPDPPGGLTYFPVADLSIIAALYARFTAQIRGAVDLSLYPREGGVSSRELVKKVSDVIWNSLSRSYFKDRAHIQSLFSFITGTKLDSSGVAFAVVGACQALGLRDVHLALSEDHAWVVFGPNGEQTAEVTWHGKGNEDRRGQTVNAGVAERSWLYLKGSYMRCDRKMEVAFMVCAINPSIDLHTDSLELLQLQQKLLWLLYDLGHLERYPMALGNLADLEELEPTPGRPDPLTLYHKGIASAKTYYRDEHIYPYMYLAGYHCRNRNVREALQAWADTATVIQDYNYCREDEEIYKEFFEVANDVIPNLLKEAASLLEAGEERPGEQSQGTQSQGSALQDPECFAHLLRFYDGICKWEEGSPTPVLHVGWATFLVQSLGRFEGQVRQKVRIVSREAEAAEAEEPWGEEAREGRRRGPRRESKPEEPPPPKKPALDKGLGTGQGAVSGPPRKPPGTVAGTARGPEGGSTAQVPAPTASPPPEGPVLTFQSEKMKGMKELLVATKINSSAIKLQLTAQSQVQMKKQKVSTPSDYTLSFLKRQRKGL

Compound	IC50 [1]	GI50 ([2]; 72 h)	GI50 ([3]; Homo sapiens, MOLM-13, 168 h)	GI50 ([4]; Homo sapiens, OCI-AML-3, 168 h)	AUC(0-t) [5]	half-life [5]	Cmax [5]	F, % [5]	GI50 ([2]; Homo sapiens, MV4-11, 72 h)	half-life at 1 μM [6]	half-life at 1 μM [7]	half-life at 1 μM [8]	Half life T1/2, mouse liver microsomes ([6]; 0.5 mg/mL microsomal protein)	Half life T1/2, human liver microsomes ([7]; Human)	GI50 ([3]; 168 h)	GI50 ([4]; 168 h)
CC(C)N(C(=O)c1cc(F)ccc1Oc1cncnc1N1CC2(CCN(CC3CC4CCC3CC43CCC(=O)N3)CC2)C1)C(C)C (single isomer, unassigned) [Example 13-1b]	33.4 nM	55.2 nM	63.3 nM	31.2 nM	7770 ng·h/mL	3.84 h	2010 ng/mL	72%	–	–	–	–	–	–	–	–
CCN(C(=O)c1cc(F)ccc1Oc1cncnc1N1CC2(CCN(C[C@H]3CC[C@@]4(CCC(=O)N4)CC3)CC2)C1)C(C)C [Example 1]	–	–	580 nM	277 nM	5290 ng·h/mL	1.51 h	2480 ng/mL	79%	76.2 nM	–	–	–	–	–	–	–
CCN(C(=O)c1cc(F)ccc1Oc1nncnc1N1CC2(CCN(CC3CC4CCC3CC43CCC(=O)N3)CC2)C1)C(C)C (single isomer, unassigned) [Example 14-1a]	49.2 nM	–	–	–	–	–	–	–	86.1 nM	> 2 h	0.955 h	–	–	–	–	–
CC(C)N(C(=O)c1cc(F)ccc1Oc1nncnc1N1CC2(CCN(CC3CCC4(CC3)CN(C)C(=O)N4)CC2)C1)C(C)C (single isomer, unassigned) [Example 47-1]	20.2 nM	–	–	–	–	–	–	–	118 nM	> 2 h	0.78 h	1.28 h	–	–	–	–
CC(C)c1ncncc1-c1cc(F)ccc1Oc1cncnc1N1CC2(CN(CC3CCC4(CC3)OCCO4)C2)C1 [Control compound 1, reference compound]	156 nM	82.7 nM	–	–	–	–	–	–	–	–	–	–	3.75 min	4.77 min	–	–
CC(C)N(C(=O)c1cc(F)ccc1Oc1nncnc1N1CC2(CCN(CC3CCC4(CC3)COC(=O)N4)CC2)C1)C(C)C (stereo not shown) [Example 49]	42 nM	–	110 nM	108 nM	2320 ng·h/mL	1.1 h	1350 ng/mL	77%	51.3 nM	–	–	–	–	–	–	–
CC(C)N(C(=O)c1cc(F)ccc1Oc1cncnc1N1CC2(CCN(C[C@H]3CC[C@]4(CC3)CC(C)(C)C(=O)N4)CC2)C1)C1CC1 [Example 23]	12 nM	–	157 nM	77.9 nM	2650 ng·h/mL	2.52 h	1510 ng/mL	119%	20 nM	0.808 h	0.605 h	–	–	–	–	–
COCC1(COC)C[C@]2(CC[C@@H](CN3CCC4(CC3)CN(c3ncncc3Oc3ccc(F)cc3C(=O)N(C(C)C)C(C)C)C4)CC2)NC1=O [Example 18]	6.3 nM	–	12.8 nM	21.2 nM	4040 ng·h/mL	1.34 h	1960 ng/mL	75%	12.2 nM	–	–	–	–	–	–	–
CCN(C(=O)c1cc(F)ccc1Oc1nncnc1N1CC2(CCN(C[C@H]3CC[C@]4(CC3)CC(C(C)(C)O)C(=O)N4)CC2)C1)C(C)C (stereo partly shown) [Example 58-1]	2.9 nM	–	88.9 nM	42.4 nM	–	–	–	–	17.2 nM	–	–	–	–	–	–	–
CC(C)N(C(=O)c1cc(F)ccc1Oc1nncnc1N1CC2(CCN(CC3CCC4(CC3)CC3(CC3)C(=O)N4)CC2)C1)C(C)C (single isomer, unassigned) [Example 44-1]	48.8 nM	–	–	–	–	–	–	–	16.7 nM	–	–	–	–	–	111 nM	60.5 nM
CC(C)N(C(=O)c1cc(F)ccc1Oc1nncnc1N1CC2(CCN(C[C@H]3CC[C@]4(CC3)CC(C(C)(C)O)C(=O)N4)CC2)C1)C(C)C (single isomer, unassigned) [Example 59-1a]	7.8 nM	–	36.2 nM	18.5 nM	–	–	–	–	9.6 nM	–	–	–	–	–	–	–
CC(C)N(C(=O)c1cc(F)ccc1Oc1cncnc1N1CC2(CCN(C[C@H]3CC[C@]4(CC3)CC(C)(C)C(=O)N4)CC2)C1)C1CCC1 [Example 25]	31.2 nM	–	86.3 nM	64.3 nM	–	–	–	–	6.9 nM	–	–	–	–	–	–	–
